Measurements taken from patent US7060725B2, “Substituted sulfamate anticonvulsant derivatives” (Janssen Pharmaceutica N.V., priority 2002, dated 2006).

Legend:
[1] = system: maximal electroshock seizure (MES-induced seizure spread); experiment: Maximal electroshock seizure (MES) test, mouse; type: in vivo, mice; conditions: for Mouse Activity (number of mice active/total number of mice tested): 100 mg/kg
Experimental: Anticonvulsant activity was determined using the standard MES model for generalized tonic-clonic seizures (Swinyard E A, Woodhead J H, White H S, Franklin M R, In: Levy R H, Mattson R H, Meldrum B S, Penry J K, Dreifuss F E eds. Antiepileptic drugs. New York: Raven Press, 1989:85–102).
An electric stimulus of 0.2 sec duration, 60 Hz, 50 mA in mice, 150 mA in rats, was delivered via corneal electrodes primed with an electrolyte solution containing an anesthetic agent (0.5% tetracaine hydrochloride in 0.9% saline).
Mice or rats were randomly selected into control and test groups. The animals were dosed with vehicle or test compound, at varying concentrations. […] Rats were subjected to electrical stimulus at time intervals between 15 minutes and 4 hours following administration of test compound. Abolition of the hind limb tonic extensor component was an indication of the test compound's ability to inhibit MES-induced seizure spread.
The ED50 (the calculated dose required to block the hindlimb tonic-extensor component of the maximal electroshock seizure in 50% of the animals tested) was calculated. A probit analysis (Finney D J. Probit Analysis. Cambridge, England: Cambridge University Press, 1971) was used to calculate the ED50.
Following the mouse procedure described above, representative compounds of the instant invention were tested for biological activity in the mouse, with results as listed in Table 5. Mouse activity is listed as number of mice active/total number of mice tested @ time after administration of the test compound.

[2] = system: simple and complex partial seizure and secondarily generalized seizures; conditions: cited from earlier work
[3] = system: maximal electroshock seizure (MES-induced seizure spread); experiment: Maximal electroshock seizure (MES) test, rat; type: in vivo, rats; conditions: for Rat Activity (oral) (number of rats active/total number of rats tested): 30 mg/kg
Experimental: Anticonvulsant activity was determined using the standard MES model for generalized tonic-clonic seizures (Swinyard E A, Woodhead J H, White H S, Franklin M R, In: […], Meldrum […], Dreifuss F E eds. Antiepileptic drugs. New York: Raven Press, 1989:85-102). An electric stimulus of 0.2 sec duration, 60 Hz, 50 mA in mice, 150 mA in rats, was delivered via corneal electrodes primed with an electrolyte solution containing an anesthetic agent (0.5% tetracaine hydrochloride in 0.9% saline). Mice or rats were randomly selected into control and test groups. The animals were dosed with vehicle or test compound, at varying concentrations. Mice were subjected to the electrical stimulus at 30 minutes and 4 hours following administration of test compound. […] Abolition of the hind limb tonic extensor component was an indication of the test compound's ability to inhibit MES-induced seizure spread. […] A probit analysis (Finney D J. Probit Analysis. Cambridge, England: Cambridge University Press, 1971) was used to calculate the ED50. Following the rat procedure described above, representative compounds of the instant invention were tested for biological activity in the rat, with results as listed in Table 6 and 7. Rat activity is listed as number of rats active/total number of rats tested @ time after administration of the test compound.

In the case of `CC1(C)O[C@@H]2[C@@H](CO[C@@]3(COS(N)(=O)=O)OC(C)(C)O[C@@H]23)O1` [TPM, 2,3:4,5-bis-O-(1-methylethylidene)-β-D-fructopyranose sulfamate, reference compound], the ED50 ([1]; @ 2 hrs) is listed as “ED50 = 33 m/k” and the “efficacy in clinical trials of human epilepsy” value [2] is listed as “effective as adjunctive therapy or as monotherapy”.
In the case of `CC1(C)OC2COC3(COS(=O)(=O)NC(c4ccccc4)c4ccccc4)OC(C)(C)OC3C2O1` (stereo not drawn) [Compound 37], the “Mouse Activity (number of mice active/total number of mice tested)” value ([1]; @ 0.5 hrs after administration) is reported as 0/3 @ ½ hr,, the “Mouse Activity (number of mice active/total number of mice tested)” value ([1]; @ 1 hr after administration) is reported as 0/3 @ ½ hr, and the “Mouse Activity (number of mice active/total number of mice tested)” value ([1]; @ 2 hrs after administration) is reported as 1/3 @ ¼ hrs,. The “Mouse Activity (number of mice active/total number of mice tested)” value ([1]; @ 6 hrs after administration) was 1/3 @ ¼ hrs,, the “Mouse Activity (number of mice active/total number of mice tested)” value ([1]; @ ¼ hrs after administration) was 1/3 @ ¼ hrs, and the “Mouse Activity” value ([1]; dosage 30 mg/kg) was “No Activity”. The “Mouse Activity” value ([1]; dosage 300 mg/kg) was “No activity”, the “Rat Activity (oral) (number of rats active/total number of rats tested)” value ([3]; @ 1 hr) was 1/4 @ 1 hr and the “Rat Activity (oral) (number of rats active/total number of rats tested)” value ([3]; @ 2 hrs) was 2/4 @ 2 hrs. The “Rat Activity (oral) (number of rats active/total number of rats tested)” value ([3]; @ 4 hrs) was 1/4 @ 4 hrs.
In the case of `COC(=O)CNS(=O)(=O)OCC12OCC3OC(C)(C)OC3C1OC(C)(C)O2` (stereo not drawn) [Compound 5], the “Mouse Activity” value ([1]; dosage 30, 100, 300 mg/kg) is reported as “No activity”, the ED50 ([3]; @ 2 hrs) is reported as >80 @ 2 hrs m/k and the “Rat Activity (oral) (number of rats active/total number of rats tested)” value ([3]; @ 2 hrs) is reported as 3/4 @ 2 hrs. For the same molecule, the “Rat Activity (oral) (number of rats active/total number of rats tested)” value ([3]; @ 4 hrs) was 1/4 @ 4 hrs.
For `CON(C)S(=O)(=O)OCC12OCC3OC(C)(C)OC3C1OC(C)(C)O2` (stereo not drawn) [Compound 11], the “Mouse Activity” value ([1]; dosage 30, 100, 300 mg/kg) was “No activity”, the ED50 ([3]; @ 4 hrs) was 26.75 @ 4 hrs m/k and the “Rat Activity (oral) (number of rats active/total number of rats tested)” value ([3]; @ 0.5 hrs) was 2/3 @ 0.5 hrs. For the same molecule, the “Rat Activity (oral) (number of rats active/total number of rats tested)” value ([3]; @ 2 hrs) was 2/3 @ 2 hrs and the “Rat Activity (oral) (number of rats active/total number of rats tested)” value ([3]; @ 4 hrs) was 2/3 @ 4 hrs.
